This note sets out measurements from patent US10111431B2, “Application of biofilm formation inhibiting compounds enhances control of citrus canker” (priority 2013, dated 2018).

In brackets after ≈: the same amount, converted by molar mass. Several values for one entry are separate records, joined by “and”; a condition that tells them apart may be missing. Equal entries are not always repeated.

The term MIC denotes the smallest concentration in the dilution series that meets the test's criterion for growth inhibition. A lower MIC goes with a more susceptible organism.

Assay [1] has as its system X. citri subsp. citri strain 306. Briefly: Determination of minimum inhibitory concentrations (MICs) in NB medium, 96-well plate. The assay is classed as cell-based, Xanthomonas citri subsp. citri. To be noted: 48 h. As for the experimental part: Xac strain 306 was grown in NB at 28° C. with shaking at 200 rpm for 7 h. The cultures were standardized to an OD600 of 0.03 (5×10^7 colony forming unit (CFU)/mL) in NB and then aliquoted into wells of a 96-well plate, 190 μL per well. The initial test concentrations of the compounds were diluted (1:20) in the culture (10 μl of compound in 190 μl of culture) and incubated at 28° C. under stationary conditions. The cultures were monitored at 24 and 48 h at OD600, and the lowest concentration resulting in no growth after 48 h compared to the control samples was defined as the MIC for Xac strain 306. All determinations were conducted in eight replicate wells and repeated three times.

Another assay concerns Xac 306 biofilm cells. The assay is described as follows: Resistance of Xac biofilm cells to copper, cell viability assay in glass tubes. The assay is classed as cell-based, Xanthomonas citri subsp. citri. The following applies: CuSO4 (1.0 mM) alone, 24 h. As for the experimental part: The level of copper resistance of biofilms was evaluated using a cell viability assays. Briefly, Xac biofilms were prepared using NB with stationary incubation in glass tubes as described above. After 48 h-incubation, the cultures were removed and bacterial cells attached to the tubes were gently washed three times with SDW. One milliliter of fresh NB with CuSO4 (1.0 mM), D-leucine (10 mM) or IAN (100 μg/mL), or a combination of these compounds was added to each tube. NB alone was used as control. Tubes were kept at room temperature for 24 h and shaken vigorously for 5 min. The suspensions were diluted in 10-fold series, and 10 μL of each dilution spotted in triplicate on NA plate. Plates were incubated at 28° C. for 48 to 72 h prior to assessing bacterial growth. Colonies that grew near the dilution end-point were counted and bacterial populations in the initial suspensions prior to dilution were calculated. Each treatment compromises four replicates and the experiment repeated three times.

Assay [2] deals with Xac 306 on grapefruit leaves. Briefly: Plant test in greenhouse, spray inoculation of grapefruit leaves. The assay is classed as in vivo, Xanthomonas citri subsp. citri. As for the experimental part:
The effect of selected biofilm inhibitors on Xac infection/virulence-was investigated using 20-week-old potted grapefruit (Citrus paradise cv. Duncan grapefruit) plants in a quarantine greenhouse at the Citrus Research and Education Center, Lake Alfred, Fla. Copper (CuSO4, 100 μg/mL), D-leucine (10 mM), IAN (100 μg/mL) and a combination of these compounds were individually prepared in 100 ml of SDW. Bacterial inoculum was prepared by growing Xac 306 on NA plates at 28° C. for 48 h, suspending in SDW, adjusting concentration to approximately OD600=0.3 (5×10^8 CFU/mL). The inoculation was performed by a spray method as described previously (Li and Wang, 2012) with modifications. Briefly, the abaxial surfaces of fully expanded, immature leaves of each plant were sprayed with the following treatments: SDW, Xac 306, and Xac 306 combined with CuSO4 (100 μg/mL), D-leucine (10 mM), IAN (100 μg/mL), or a combination of these compounds. Silwett-L77 (silicone-polyether copolymer, Fisher) was added to each treatment at a 0.03% (V/V) final concentration. After inoculation, the plants were covered with plastic bags for 24 h to maintain a high (>90%) relative humidity and then kept in a greenhouse (approximately 60% relative humidity) for symptom development. All inoculations included a minimum of three immature leaves at a similar developmental stage from each plant, and each treatment comprised four plants. The experiments were repeated three times independently. SDW was applied as a negative control, and Xac306 mixed with SDW as positive control. To determine whether the timing of application of biofilm inhibitors in relation to Xac306 affected canker symptom suppression, the biofilm inhibitors were inoculated on leaves 6 h prior to or after inoculation with Xac306.
For bacterial population assays, the leaves of grapefruit plants were inoculated as described above. Two leaf discs randomly selected from each of three inoculated leaves were cut with a cork borer (0.8 cm in diameter) and then ground in 1 mL of SDW. The suspensions were serially diluted and plated on NA plates containing rifamycin. After incubation at 28° C. for 48 h, bacterial colonies were counted and the number of CFU per square centimeter of leaf tissue was calculated. The assays were repeated three times independently.

The subject of another assay is Xac306 biofilm formation. Briefly: Static biofilm formation assay in 96-well polystyrene plates with crystal violet staining. In kind it is cell-based, Xanthomonas citri subsp. citri. To be noted: 0 to 20 mM for D-leucine and D-serine; 0 to 150 μg/mL for IAN. As for the experimental part:
A static biofilm formation assay in 96-well polystyrene plates coupled with CV staining was performed as previously reported with modifications (Li and Wang, 2011). Briefly, a 96-well polystyrene plate (Nunclon surface, Nuncbrand, Denmark) was prepared with 170 μL NB plus 1.0% glucose per well. Aliquots of 20 μL each of the different concentrations of the tested compound were pipetted into eight wells containing 170 μL of NB plus 1.0% glucose. To each of these wells was added 10 μL of the standardized overnight Xac 306 culture (OD600=1.0). Control wells contained NB plus 1.0% glucose and SDW or 0.1% DMSO as a sterility control, or standardized overnight Xac 306 culture as a growth control. The plate was covered by a MicroWell lid (Nunclon), sealed with parafilm to prevent evaporation and incubated at 28° C. for 48 h without shaking. After incubation, the planktonic growth was measured at OD600. To quantify the amount of biofilms formed on the surfaces of the wells, the culture was removed from the wells. After drying, the wells were washed twice with 200 μl of SDW for 5 min, allowed to dry then 200 μl of 0.1% CV added. After 30 minutes, the CV was removed. The wells were washed with excess SDW to remove unbound CV and air dried in an inverted position for 2 h. Afterward, 200 μl of 95% ethanol was added to the wells and incubated for 30 min at room temperature to elute bound CV. The eluted CV was 2-fold diluted in double distilled water and the absorbance at 590 nm was measured. Each data point was averaged from eight replicate wells.

For the molecule `O=S(=O)([O-])[O-].[Cu+2]` [CuSO4], the “MIC of CuSO4 in the presence of D-leucine and IAN” value in assay [1] (D-leucine 10 mM and IAN 100 μg/mL, planktonic cells, NB medium) came out at 0.25 mM. The “MIC of CuSO4 in the presence of D-leucine” value in assay [1] (D-leucine 10 mM, planktonic cells, NB medium) was 0.25 mM. Besides, the “MIC of CuSO4 in the presence of IAN” value in assay [1] (IAN 100 μg/mL, planktonic cells, NB medium) is recorded as 0.25 mM. Besides, the MIC in assay [1] (compound alone, NB medium, 28° C., stationary, OD600) is 0.50 mM and 0.5 mM. For the same molecule, in the assay with Xac 306 biofilm cells, the “viable cells in biofilms” value was 3×10^7 CFU/mL. In assay [2] (D-leucine 10 mM, IAN 100 μg/mL, CuSO4 100 μg/mL), the “level of canker lesions on sprayed leaves” value is “less than that sprayed with the pathogen alone”. Further, in assay [2] (grapefruit leaves, 7 to 28 days after inoculation), the “log reduction in the number of CFU compared to untreated control” value was roughly 1.0 log.

Regarding `N[C@H](CO)C(=O)O` [D-serine], in the assay with Xac306 biofilm formation, the “dose dependence of Xac306 biofilm decrease” value is given as “decreased Xac306 biofilm in a dose-dependent manner”. This molecule showed an MIC in assay [1] (Xanthomonas citri) of 8 mM (≈ 841 µg/mL).
